Reference: publication PMC11882969 (Nature Communications, 2025)
Values joined by “and” are separate entries in the source; they are usually repeats but may differ in a detail not shown here. Equal entries are not always repeated.

Assays:
Format in all cases: cell-based
[1] = target: panel of 320 non-olfactory GPCRs (Homo sapiens, UniProt O15552)
[2] = target: panel of 320 non-olfactory GPCRs (Homo sapiens, UniProt O75388)
[3] = target: panel of 320 non-olfactory GPCRs (Homo sapiens, UniProt P0DMS8)
[4] = target: panel of 320 non-olfactory GPCRs (Homo sapiens, UniProt P16473)
[5] = target: panel of 320 non-olfactory GPCRs (Homo sapiens, UniProt P21918)
[6] = target: panel of 320 non-olfactory GPCRs (Homo sapiens, UniProt P25106)
panel of 320 non-olfactory GPCRs (Homo sapiens, UniProt P25106), sequence (P25106 whole entry): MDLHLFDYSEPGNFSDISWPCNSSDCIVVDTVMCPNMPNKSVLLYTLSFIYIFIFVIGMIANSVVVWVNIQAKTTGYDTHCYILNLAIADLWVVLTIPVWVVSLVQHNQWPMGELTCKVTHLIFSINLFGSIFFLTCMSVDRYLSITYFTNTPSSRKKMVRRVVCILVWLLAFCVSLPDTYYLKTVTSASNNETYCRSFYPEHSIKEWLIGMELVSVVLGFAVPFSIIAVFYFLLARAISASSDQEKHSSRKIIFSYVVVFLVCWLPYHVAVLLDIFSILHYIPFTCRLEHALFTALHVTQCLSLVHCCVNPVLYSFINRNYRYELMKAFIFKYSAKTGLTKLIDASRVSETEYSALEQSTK

[7] = target: panel of 320 non-olfactory GPCRs (Homo sapiens, UniProt P28221)
[8] = target: panel of 320 non-olfactory GPCRs (Homo sapiens, UniProt P28335, I156V/I160V)
panel of 320 non-olfactory GPCRs (Homo sapiens, UniProt P28335, I156V/I160V), sequence (P28335 33-458 I156V/I160V): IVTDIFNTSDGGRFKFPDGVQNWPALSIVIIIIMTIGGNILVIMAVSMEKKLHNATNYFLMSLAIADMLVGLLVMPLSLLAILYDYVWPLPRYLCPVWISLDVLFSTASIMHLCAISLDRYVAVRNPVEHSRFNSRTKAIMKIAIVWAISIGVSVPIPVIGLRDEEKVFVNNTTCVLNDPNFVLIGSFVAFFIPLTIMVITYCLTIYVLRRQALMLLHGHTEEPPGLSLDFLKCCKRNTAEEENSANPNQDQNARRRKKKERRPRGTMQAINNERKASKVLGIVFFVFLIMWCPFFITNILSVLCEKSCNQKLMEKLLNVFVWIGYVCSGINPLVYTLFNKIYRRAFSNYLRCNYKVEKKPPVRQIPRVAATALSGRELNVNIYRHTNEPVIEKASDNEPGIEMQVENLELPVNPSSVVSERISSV

[9] = target: panel of 320 non-olfactory GPCRs (Homo sapiens, UniProt P28566)
[10] = target: panel of 320 non-olfactory GPCRs (Homo sapiens, UniProt P30518)
panel of 320 non-olfactory GPCRs (Homo sapiens, UniProt P30518), sequence (P30518 whole entry): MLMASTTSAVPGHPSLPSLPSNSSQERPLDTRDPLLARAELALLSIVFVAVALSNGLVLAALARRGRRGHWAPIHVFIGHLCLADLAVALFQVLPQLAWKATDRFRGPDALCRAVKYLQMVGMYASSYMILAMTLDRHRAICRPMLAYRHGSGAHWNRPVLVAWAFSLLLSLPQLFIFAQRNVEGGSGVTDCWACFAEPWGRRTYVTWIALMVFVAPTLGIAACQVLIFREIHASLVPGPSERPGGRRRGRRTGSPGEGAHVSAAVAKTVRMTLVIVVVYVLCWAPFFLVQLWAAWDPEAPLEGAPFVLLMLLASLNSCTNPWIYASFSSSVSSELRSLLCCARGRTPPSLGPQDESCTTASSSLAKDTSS

[11] = target: panel of 320 non-olfactory GPCRs (Homo sapiens, UniProt P32245)
[12] = target: panel of 320 non-olfactory GPCRs (Homo sapiens, UniProt P33032)
panel of 320 non-olfactory GPCRs (Homo sapiens, UniProt P33032), sequence (P33032 whole entry): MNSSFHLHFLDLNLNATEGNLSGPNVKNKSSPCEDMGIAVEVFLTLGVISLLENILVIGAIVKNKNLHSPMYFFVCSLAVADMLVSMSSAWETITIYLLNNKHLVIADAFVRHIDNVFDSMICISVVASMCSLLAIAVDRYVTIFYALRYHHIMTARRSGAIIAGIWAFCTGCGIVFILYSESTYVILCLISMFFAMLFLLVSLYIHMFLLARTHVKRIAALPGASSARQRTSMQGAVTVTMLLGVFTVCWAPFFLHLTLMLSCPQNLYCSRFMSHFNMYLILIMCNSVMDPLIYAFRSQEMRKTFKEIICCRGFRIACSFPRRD

[13] = target: panel of 320 non-olfactory GPCRs (Homo sapiens, UniProt P35346)
[14] = target: panel of 320 non-olfactory GPCRs (Homo sapiens, UniProt P41143)
[15] = target: panel of 320 non-olfactory GPCRs (Homo sapiens, UniProt P41597)
panel of 320 non-olfactory GPCRs (Homo sapiens, UniProt P41597), sequence (P41597 whole entry): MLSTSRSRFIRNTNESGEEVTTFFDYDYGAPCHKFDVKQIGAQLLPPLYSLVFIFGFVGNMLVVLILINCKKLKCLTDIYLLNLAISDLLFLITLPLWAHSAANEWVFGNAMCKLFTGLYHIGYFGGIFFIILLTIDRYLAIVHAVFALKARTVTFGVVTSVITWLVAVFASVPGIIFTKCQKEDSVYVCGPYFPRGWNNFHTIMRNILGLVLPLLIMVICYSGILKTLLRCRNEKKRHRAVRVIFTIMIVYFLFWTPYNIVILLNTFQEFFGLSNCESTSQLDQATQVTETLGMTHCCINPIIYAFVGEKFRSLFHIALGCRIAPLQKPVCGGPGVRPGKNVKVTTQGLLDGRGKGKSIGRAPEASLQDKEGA

[16] = target: panel of 320 non-olfactory GPCRs (Homo sapiens, UniProt P41968)
[17] = target: panel of 320 non-olfactory GPCRs (Homo sapiens, UniProt P46089)
[18] = target: panel of 320 non-olfactory GPCRs (Homo sapiens, UniProt P46091)
[19] = target: panel of 320 non-olfactory GPCRs (Homo sapiens, UniProt P46093)
panel of 320 non-olfactory GPCRs (Homo sapiens, UniProt P46093), sequence (P46093 whole entry): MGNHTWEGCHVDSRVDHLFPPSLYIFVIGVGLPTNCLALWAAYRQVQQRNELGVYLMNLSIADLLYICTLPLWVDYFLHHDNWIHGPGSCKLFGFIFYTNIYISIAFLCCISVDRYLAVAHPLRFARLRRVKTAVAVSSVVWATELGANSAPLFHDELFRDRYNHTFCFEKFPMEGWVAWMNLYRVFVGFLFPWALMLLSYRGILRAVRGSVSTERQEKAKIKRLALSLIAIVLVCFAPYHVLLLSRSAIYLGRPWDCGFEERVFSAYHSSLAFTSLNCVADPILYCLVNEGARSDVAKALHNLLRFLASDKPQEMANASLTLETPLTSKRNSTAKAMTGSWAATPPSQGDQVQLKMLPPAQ

[20] = target: panel of 320 non-olfactory GPCRs (Homo sapiens, UniProt P46095)
[21] = target: panel of 320 non-olfactory GPCRs (Homo sapiens, UniProt P47871)
[22] = target: panel of 320 non-olfactory GPCRs (Homo sapiens, UniProt P48145)
panel of 320 non-olfactory GPCRs (Homo sapiens, UniProt P48145), sequence (P48145 whole entry): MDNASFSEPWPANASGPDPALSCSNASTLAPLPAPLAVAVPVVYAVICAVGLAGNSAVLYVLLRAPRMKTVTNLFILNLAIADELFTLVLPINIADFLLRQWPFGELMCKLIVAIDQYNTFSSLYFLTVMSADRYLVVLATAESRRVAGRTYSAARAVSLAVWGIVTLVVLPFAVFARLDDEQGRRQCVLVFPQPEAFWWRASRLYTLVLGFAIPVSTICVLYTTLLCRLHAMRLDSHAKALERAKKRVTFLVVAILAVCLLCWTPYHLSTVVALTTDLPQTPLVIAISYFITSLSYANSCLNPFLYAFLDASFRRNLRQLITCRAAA

[23] = target: panel of 320 non-olfactory GPCRs (Homo sapiens, UniProt P51679)
[24] = target: panel of 320 non-olfactory GPCRs (Homo sapiens, UniProt Q15743)
[25] = target: panel of 320 non-olfactory GPCRs (Homo sapiens, UniProt Q16538)
[26] = target: panel of 320 non-olfactory GPCRs (Homo sapiens, UniProt Q6U736)
[27] = target: panel of 320 non-olfactory GPCRs (Homo sapiens, UniProt Q86SQ6)
[28] = target: panel of 320 non-olfactory GPCRs (Homo sapiens, UniProt Q8IZF3)
panel of 320 non-olfactory GPCRs (Homo sapiens, UniProt Q8IZF3), sequence (Q8IZF3 22-695): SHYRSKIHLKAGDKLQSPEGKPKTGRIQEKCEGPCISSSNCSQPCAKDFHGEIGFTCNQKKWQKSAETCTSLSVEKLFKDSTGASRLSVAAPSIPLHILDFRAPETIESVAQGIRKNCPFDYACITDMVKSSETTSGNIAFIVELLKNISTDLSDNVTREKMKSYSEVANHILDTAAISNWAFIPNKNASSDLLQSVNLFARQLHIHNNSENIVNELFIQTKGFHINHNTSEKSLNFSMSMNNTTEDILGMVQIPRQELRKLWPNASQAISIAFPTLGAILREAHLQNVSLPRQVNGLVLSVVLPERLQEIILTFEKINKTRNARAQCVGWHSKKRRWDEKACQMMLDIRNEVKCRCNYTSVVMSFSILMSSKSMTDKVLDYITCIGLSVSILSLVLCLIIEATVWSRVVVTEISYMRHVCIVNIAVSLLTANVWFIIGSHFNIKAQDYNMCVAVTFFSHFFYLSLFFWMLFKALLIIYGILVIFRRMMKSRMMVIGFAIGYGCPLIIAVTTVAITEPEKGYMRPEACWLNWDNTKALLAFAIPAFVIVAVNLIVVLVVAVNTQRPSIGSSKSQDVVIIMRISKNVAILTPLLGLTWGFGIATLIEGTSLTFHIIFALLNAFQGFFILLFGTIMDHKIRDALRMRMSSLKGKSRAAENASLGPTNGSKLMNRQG

[29] = target: panel of 320 non-olfactory GPCRs (Homo sapiens, UniProt Q8IZP9)
[30] = target: panel of 320 non-olfactory GPCRs (Homo sapiens, UniProt Q92847)
[31] = target: panel of 320 non-olfactory GPCRs (Homo sapiens, UniProt Q99680)
[32] = target: panel of 320 non-olfactory GPCRs (Homo sapiens, UniProt Q99788)
panel of 320 non-olfactory GPCRs (Homo sapiens, UniProt Q99788), sequence (Q99788 whole entry): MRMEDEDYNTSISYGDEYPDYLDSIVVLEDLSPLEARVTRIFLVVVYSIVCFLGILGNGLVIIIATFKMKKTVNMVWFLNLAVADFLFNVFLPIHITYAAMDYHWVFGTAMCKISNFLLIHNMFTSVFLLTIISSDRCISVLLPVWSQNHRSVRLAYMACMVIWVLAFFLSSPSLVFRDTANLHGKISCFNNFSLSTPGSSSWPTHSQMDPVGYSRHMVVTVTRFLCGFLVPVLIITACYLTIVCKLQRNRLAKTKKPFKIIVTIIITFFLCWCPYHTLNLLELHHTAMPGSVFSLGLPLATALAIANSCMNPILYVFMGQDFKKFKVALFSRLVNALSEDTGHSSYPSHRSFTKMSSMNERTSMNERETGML

[33] = target: panel of 320 non-olfactory GPCRs (Homo sapiens, UniProt Q9BY21)
panel of 320 non-olfactory GPCRs (Homo sapiens, UniProt Q9BY21), sequence (Q9BY21 whole entry): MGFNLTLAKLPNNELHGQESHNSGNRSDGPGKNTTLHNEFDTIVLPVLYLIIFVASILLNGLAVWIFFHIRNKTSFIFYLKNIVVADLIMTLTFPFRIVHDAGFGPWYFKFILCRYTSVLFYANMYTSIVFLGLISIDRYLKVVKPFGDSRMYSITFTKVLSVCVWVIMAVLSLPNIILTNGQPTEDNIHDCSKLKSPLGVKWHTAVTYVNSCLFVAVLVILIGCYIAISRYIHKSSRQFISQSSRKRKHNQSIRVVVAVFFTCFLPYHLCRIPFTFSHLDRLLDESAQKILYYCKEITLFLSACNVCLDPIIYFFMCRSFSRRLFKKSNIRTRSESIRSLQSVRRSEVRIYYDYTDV

[34] = target: panel of 320 non-olfactory GPCRs (Homo sapiens, UniProt Q9HBW9)
[35] = target: panel of 320 non-olfactory GPCRs (Homo sapiens, UniProt Q9NS66)
panel of 320 non-olfactory GPCRs (Homo sapiens, UniProt Q9NS66), sequence (Q9NS66 whole entry): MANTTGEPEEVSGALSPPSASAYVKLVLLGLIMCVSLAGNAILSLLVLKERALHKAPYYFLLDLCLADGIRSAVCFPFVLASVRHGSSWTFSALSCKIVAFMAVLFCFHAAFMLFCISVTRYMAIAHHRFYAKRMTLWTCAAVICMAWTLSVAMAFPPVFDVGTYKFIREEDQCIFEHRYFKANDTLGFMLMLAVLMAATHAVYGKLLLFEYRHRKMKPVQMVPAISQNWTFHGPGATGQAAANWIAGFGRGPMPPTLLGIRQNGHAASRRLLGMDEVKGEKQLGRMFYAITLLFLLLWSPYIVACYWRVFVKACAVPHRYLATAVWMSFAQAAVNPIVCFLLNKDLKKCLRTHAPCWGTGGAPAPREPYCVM

[36] = target: panel of 320 non-olfactory GPCRs (Homo sapiens, UniProt Q9NS75)
[37] = target: panel of 320 non-olfactory GPCRs (Homo sapiens, UniProt Q9UNW8)
panel of 320 non-olfactory GPCRs (Homo sapiens, UniProt Q9UNW8), sequence (Q9UNW8 whole entry): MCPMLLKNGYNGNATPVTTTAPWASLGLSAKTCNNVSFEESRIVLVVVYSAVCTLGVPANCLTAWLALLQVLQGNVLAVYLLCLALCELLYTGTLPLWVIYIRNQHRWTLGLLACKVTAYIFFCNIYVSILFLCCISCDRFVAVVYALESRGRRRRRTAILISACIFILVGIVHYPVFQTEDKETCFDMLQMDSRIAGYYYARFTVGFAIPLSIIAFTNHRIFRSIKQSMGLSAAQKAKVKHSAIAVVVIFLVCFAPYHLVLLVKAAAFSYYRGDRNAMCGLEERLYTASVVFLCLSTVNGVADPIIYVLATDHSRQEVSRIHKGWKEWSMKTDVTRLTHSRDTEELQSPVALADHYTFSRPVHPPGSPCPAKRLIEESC

COC(=O)[C@@](C)(NC(=O)c1cc(C)n(-c2cccc(C(F)(F)F)c2)n1)c1cccs1 [‘1350]
Fold of Basal RLU [1]: 0.9 and 1.2 | Fold of Basal RLU [2]: 1.1 fold and 0.9 fold and 1 fold and 0.8 fold | Fold of Basal RLU [3]: 1 fold and 0.9 fold and 1.2 fold | Fold of Basal RLU [4]: 0.7 and 0.8 and 0.6 and 0.9 | Fold of Basal RLU [5]: 0.5 and 0.4 and 0.6 | Fold of Basal RLU [6]: 1.1 fold and 1 fold and 1.6 fold and 2 fold | Fold of Basal RLU [7]: 1.1 fold and 0.9 fold and 1.2 fold | Fold of Basal RLU [8]: 0.4 and 0.8 | Fold of Basal RLU [9]: 1.3 fold and 1.5 fold and 1.2 fold | Fold of Basal RLU [10]: 1.1 fold and 0.9 fold and 1.2 fold and 1.3 fold | Fold of Basal RLU [11]: 1 fold and 1.4 fold and 0.8 fold | Fold of Basal RLU [12]: 1.3 fold and 1 fold and 1.2 fold and 1.1 fold | Fold of Basal RLU [13]: 0.4 and 0.7 and 0.6 and 0.5 | Fold of Basal RLU [14]: 1 fold and 0.9 fold and 0.8 fold | Fold of Basal RLU [15]: 0.9 and 1.4 and 1 | Fold of Basal RLU [16]: 1.3 and 0.9 and 1.1 and 0.7 | Fold of Basal RLU [17]: 1 fold and 1.1 fold and 1.4 fold and 1.3 fold | Fold of Basal RLU [18]: 1 fold and 0.8 fold and 1.4 fold | Fold of Basal RLU [19]: 1.1 fold and 0.9 fold and 1 fold | Fold of Basal RLU [20]: 1.1 fold and 0.8 fold and 1 fold | Fold of Basal RLU [21]: 0.8 and 1 and 1.2 and 1.1 | Fold of Basal RLU [22]: 1.2 and 1.8 and 1.3 and 1.4 | Fold of Basal RLU [23]: 1.1 and 1 and 0.9 | Fold of Basal RLU [24]: 0.9 fold and 1 fold | Fold of Basal RLU [25]: 0.8 and 1 and 0.6 | Fold of Basal RLU [26]: 2.3 fold and 1.9 fold | Fold of Basal RLU [27]: 0.9 fold and 1.1 fold and 1.3 fold | Fold of Basal RLU [28]: 1.1 fold and 0.9 fold | Fold of Basal RLU [29]: 1.1 fold and 1.2 fold and 0.9 fold and 0.7 fold | Fold of Basal RLU [30]: 1.4 fold and 1.8 fold and 1.6 fold | Fold of Basal RLU [31]: 0.7 fold and 0.9 fold and 0.8 fold | Fold of Basal RLU [32]: 1.1 and 1 and 1.2 | Fold of Basal RLU [33]: 1 fold and 0.9 fold and 1.1 fold | Fold of Basal RLU [34]: 1.3 fold and 1.6 fold and 2.3 fold and 1.8 fold | Fold of Basal RLU [35]: 1.6 and 1.3 and 1.7 | Fold of Basal RLU [36]: 1.3 and 1.4 and 1.8 | Fold of Basal RLU [37]: 0.8 fold and 1 fold

Cc1cc(C(=O)NC(C)(c2ccco2)c2ccco2)nn1-c1cccc(C(F)(F)F)c1 [‘4936]
Fold of Basal RLU [1]: 1.3 and 1.4 and 1.2 and 1.1 | Fold of Basal RLU [2]: 1.4 fold and 1.1 fold and 1.3 fold and 1.2 fold | Fold of Basal RLU [3]: 0.7 fold and 1.1 fold | Fold of Basal RLU [4]: 0.7 and 0.6 and 0.9 | Fold of Basal RLU [5]: 1.1 and 1.3 and 1.4 | Fold of Basal RLU [6]: 3.3 fold and 2.7 fold and 2.1 fold and 4 fold | Fold of Basal RLU [7]: 1.2 fold and 1.1 fold | Fold of Basal RLU [8]: 0.7 and 0.4 and 0.8 | Fold of Basal RLU [9]: 1.4 fold and 1.3 fold and 1.5 fold and 2 fold | Fold of Basal RLU [10]: 0.9 fold and 1.3 fold and 1.6 fold | Fold of Basal RLU [11]: 1.9 fold and 1.8 fold and 1.7 fold and 1.6 fold | Fold of Basal RLU [12]: 1.1 fold and 1.2 fold and 1.3 fold and 1 fold | Fold of Basal RLU [13]: 1 and 0.7 and 0.8 | Fold of Basal RLU [14]: 0.7 fold and 1.1 fold and 0.6 fold | Fold of Basal RLU [15]: 0.9 and 0.8 and 1 | Fold of Basal RLU [16]: 1.5 and 0.9 | Fold of Basal RLU [17]: 1 fold and 1.1 fold and 1.4 fold | Fold of Basal RLU [18]: 1 fold and 1.2 fold and 1.5 fold and 1.3 fold | Fold of Basal RLU [19]: 0.9 fold and 1 fold and 0.8 fold | Fold of Basal RLU [20]: 1.3 fold and 1 fold and 1.2 fold and 1.1 fold | Fold of Basal RLU [21]: 1.3 and 1.1 and 1.4 and 0.8 | Fold of Basal RLU [22]: 0.6 and 1.1 and 0.7 | Fold of Basal RLU [23]: 0.6 and 0.5 | Fold of Basal RLU [24]: 0.6 fold and 0.9 fold and 1 fold | Fold of Basal RLU [25]: 0.9 and 1.2 and 1.1 and 1.7 | Fold of Basal RLU [26]: 1.3 fold and 1.4 fold and 1.1 fold and 1.8 fold | Fold of Basal RLU [27]: 0.8 fold and 0.7 fold and 0.9 fold | Fold of Basal RLU [28]: 1 fold and 1.2 fold and 0.6 fold | Fold of Basal RLU [29]: 0.8 fold and 0.6 fold and 1 fold | Fold of Basal RLU [30]: 1.3 fold and 2.2 fold and 1.6 fold | Fold of Basal RLU [31]: 1.3 fold and 1 fold and 1.2 fold and 0.8 fold | Fold of Basal RLU [32]: 1.1 and 1 and 0.9 | Fold of Basal RLU [33]: 1 fold and 1.2 fold and 1.1 fold and 1.3 fold | Fold of Basal RLU [34]: 1.6 fold and 1.5 fold and 1.1 fold | Fold of Basal RLU [35]: 1.1 and 1 and 1.7 and 1.3 | Fold of Basal RLU [36]: 1.5 and 1.7 and 1.4 and 2.3 | Fold of Basal RLU [37]: 1.2 fold and 0.9 fold
